Like-named read-outs stand apart in the source and are kept apart here. Where no end group is shown, it is not given here.

Data set [1] has as its system E. coli (DH10B). It counts as cell-based, Escherichia coli. To be noted: for antibacterial activity (in words): LB, see Table S2, Figure 1A and 1B; for MIC: LB medium, 37°C, 10 h, OD 600 nm, lowest concentration where no visible growth occurred, four independent experiments. How it is done:
To evaluate the antibacterial activity of the Iztli peptides, the Escherichia coli DH1OB strain, Δ(mrr-hsd RMS-mcrBC) mcrA recA1 was used.
Serial dilutions of peptides were prepared in sterilized water. These concentrations are reported as the dry weight of each peptide. To determine the actual concentration of these peptides in solution, we estimated the molar absorption coefficient from the absorbance of each peptide at 214 nm using a spectrophotometer HP8452, kindly provided by Dr. Armando Gomez-Puyou. Then, the concentration of each peptide was calculated as: C = A/(L*MAC); where C: concentration (M), A: absorbance (arbitrary unit), L: length of the path of the spectrophotometer cell (cm) and MAC: the molar absorption coefficient (M^−1cm^−1).
The antibacterial activity of the synthetic peptides was examined in sterile 100-well plates (HC2 Pat. Pend., Finland) in a final volume of 200 µl as follows: aliquots (25 µl) of a suspension containing bacteria at a concentration of 10^5 CFU/mL in LB medium were added to 75 µl of water containing the peptide. The mixture was completed by the addition of 100 µl of 2×-concentrated LB medium. The plates were incubated at 37°C with constant orbital shaking for 10 h (at a rate specified by the equipment provider as “High”). Microbial growth was automatically determined by reading every 60 minutes the optical density at 600 nm with an OY Microplate Reader (Bioscreen C, Finland).
The minimum inhibitory concentration (MIC) was determined as the lowest concentration where no visible growth occurred. At least three different concentrations were tested for each peptide to find the corresponding MIC. All MICs were determined from four independent experiments. […]

In data set [2] the test system is Human foreskin fibroblasts (HFF) cells. Nature of the data set: Toxicity against primary cultures of human cells (LIVE/DEAD). How it is done: Human foreskin fibroblasts (HFF) cells were grown in high glucose DMEM (Invitrogen, Carlsbad, CA) supplemented with 10% fetal bovine serum (Sigma, St. Louis, MO) and penicillin/streptomycin 100 U/ml (Invitrogen, Carlsbad, CA). The cultures were incubated at 37 °C in 95% air and 5% carbon dioxide with 95% humidity. After 24 hr of plating, 15 micro liters of a stock solution of each peptide was added and 72 hr later cell viability was estimated using the LIVE/DEAD cytotoxicity kit (Molecular Probes L-3224, Invitrogen, Carlsbad, CA) according to manufacturer instructions (4 μM Eth D-1 and 2 μM Calcein AM were used). The esterase substrate calcein AM gives a green fluorescent product when hydrolyzed; therefore, cells stained green have esterase activity and consequently an intact membrane capable of retaining the esterase product. Ethidium homodimer-1, an impermeable dye that binds DNA, enters only into compromised cellular membranes commonly observed in death cells.
All these concentrations are the dry weight of each peptide.
Images were taken on a Nikon Eclipse TE300 fluorescence microscope from representative fields. Each peptide was tested in two independent assays, each performed in triplicates.

Data set [3] relates to S. cerevisiae WT (BY4741). Put plainly: Area under the growth curve (AUC), wild type control of gene screen. It counts as cell-based, Saccharomyces cerevisiae. The note with it: 10 µM peptide, 24 h growth curve; control value of Figure S1. How it is done:
(§1) An early stationary culture for every essay was obtained from a single colony growing overnight in YPD medium. This culture was used to inoculate a fresh YPD medium to reach 0.04 O.D. in a total volume of 200 µL. Every peptide and strain were tested in 96 well plates, each well containing 200 µL, incubating at 30°C with shaking using a Bioscreen C (Oy Growth Curves Ab Ltd, Finland). The activity of these peptides on each strain was determined by following the cultures during 24 hrs and recording the O.D. every hour. Lack of change in O.D. measured during 24 hours was indicative of antifungal activity.
(§2) The cultures were prepared as in the antifungal activity assay described before (see above). To identify the strains lacking a gene required to inhibit in at least 50% the normal growth of the cells, the area under the growth curve (AUC) was calculated using software designed ad hoc in our laboratory. Thus, the ratio of the AUCs of the cells in the absence and in the presence of the peptide was determined; any strain rendering a ratio value between 1.0 and 2.0 was considered to carry a deletion of a critical gene.

Data set [4] has as its system null mutant of the STE4 gene (BY4741 MATa ∆ste4). Nature of the data set: Screening for resistant gene deletions: STE4 null mutant. The class given is cell-based, Saccharomyces cerevisiae. To be noted: 10 µM, Table S1 and Figure S1. How it is done: as §1, §2
The subject of data set [5] is bacteria. To be noted: values marked (*), ref 36 ([3] in supplement, del Rio et al., 2001); cited from earlier work. An excerpt: Supplement pone.0040125.s019.doc, table 1: Supplementary Table S2. Designed selective antibacterial peptides | column: MIC (µM)
Data set [6] concerns human cells. To be noted: cited from earlier work. An excerpt: Supplement pone.0040125.s019.doc, table 1: Supplementary Table S2. Designed selective antibacterial peptides | column: Toxicity (µM)
The test system of data set [7] is MatA cells from Saccharomyces cerevisiae (BY4741). Nature of the data set: Antifungal activity (optical density growth curves). It counts as cell-based. The note with it: YPD, 30°C, 24 h, OD and CFU; IP1 10 µM, fIP1 60 µM (Figure 3). How it is done:
as §1

Data set [8] has as its system isolated mitochondria. Put plainly: Mitochondrial swelling. The class given is biochemical, Saccharomyces cerevisiae. To be noted: absorbance at 540 nm; IP1 117 µM, fIP1 100 µM, α-pheromone 160 µM (Figure 1C). How it is done: We isolated mitochondria as described in Supporting Information S1 (see section I.2). Swelling of mitochondria was determined as reported before. Briefly, fresh mitochondria were diluted in 1 mL of 0.3 M mannitol, 5 mM MES, pH 6.8 (TEA) and 5 µL of ethanol. After 20 seconds, when optical density was stable, the peptides were added. The absorbance at 540 nm was recorded in a DW2 Aminco spectrophotometer (Olis, Inc, USA) in a split mode with magnetic stirring. A decrease in the absorbance was indicative of mitochondrial swelling. To determine the integrity of mitochondrial membranes, 10% of PEG 10 kDa (final concentration) was used to induce water release from mitochondria.
Mitochondria were obtained as described before. Briefly, yeast was incubated in YPD preculture medium for 24 h at 30° C, with agitation at 250 rpm, then the cells were cultured in YPlac at 30° C for 24 h at 250 rpm to improve respiration. Cells were collected and washed twice by centrifugation. The cells were suspended in cold isolating medium (5 mM MES, 0.6 M mannitol, 0.1% bovine serum albumin; the pH was adjusted to 6.8 with triethanolamine). The cells were disrupted into a Bead-Beater cell homogenizer (Biospec Products, USA) with 0.5 mm diameter glass beads, using three 20 seconds pulses separated by 40 seconds intervals. […] Protein concentration was determined by the Biuret method.

The mark [9] stands for this setting: 72 hr exposure, calcein AM / ethidium homodimer-1 staining.
Where [10] appears, read: HFF cells, 72 hr exposure, LIVE/DEAD kit, > means no toxicity at the tested concentration, two independent assays in triplicates.

`CSCC[C@H](NC(=O)[C@@H]1CCCN1C(=O)[C@H](CCC(N)=O)NC(=O)CNC(=O)[C@@H]1CCCN1C(=O)[C@H](CCCCN)NC(=O)[C@H](CC(C)C)NC(=O)[C@H](CCC(N)=O)NC(=O)[C@H](CC(C)C)NC(=O)[C@H](Cc1c[nH]c2ccccc12)NC(=O)[C@H](Cc1c[nH]cn1)NC(=O)[C@H](Cc1c[nH]c2ccccc12)NC(=O)[C@H](Cc1ccccc1)NC(=O)[C@H](CCCNC(=N)N)NC(=O)[C@H](CC(N)=O)NC(=O)[C@H](CC(C)C)NC(=O)[C@H](Cc1ccccc1)NC(=O)[C@@H](N)CCCCN)C(=O)N[C@@H](Cc1ccc(O)cc1)C(=O)O` [IP1]: the “antibacterial activity (in words)” value in data set [1] was “presented anti-bacterial activity”. Besides, in data set [2] (setting [9]), the “toxicity on HFF cells (in words)” value is reported as “no toxicity”. Besides, the “area under the growth curve (AUC)” value in data set [3] is 0.09. Besides, the “killing activity on STE4 null mutant” value in data set [4] is on record as “resistant”.

Turning to FLHSAKKF [PH(SCAP*)4], the MIC (commonly the least concentration at which growth counts as inhibited) in data set [1] is >300 µM. Moreover, the “toxicity on HFF cells (in words)” value in data set [2] (setting [9]) is recorded as “not toxic”. Besides, the Toxicity in data set [2] (setting [10]) is >500 µM.

Turning to GIGKFLHSAKKFGKAFVGEIMNS [Magainin 2], in data set [5], the minimal inhibitory concentration (MIC) is 16 µM. In data set [6], the Toxicity is >170 µM.

Take GKFLHSAK [PH(SCAP*)2]: the MIC in data set [1] is given as >300 µM. For the same compound, in data set [2] (setting [9]), the “toxicity on HFF cells (in words)” value is reported as “not toxic”. Further, in data set [2] (setting [10]), the Toxicity is on record as >500 µM.

For the compound GKFLHSAKKFGK [PH(SCAP*)6], the MIC in data set [1] is given as >300 µM. The “toxicity on HFF cells (in words)” value in data set [2] (setting [9]) is “not toxic”. The Toxicity in data set [2] (setting [10]) is >500 µM.

For HSAKKFGK [PH(SCAP*)5], the MIC in data set [1] is reported as >300 µM. The “toxicity on HFF cells (in words)” value in data set [2] (setting [9]) is on record as “not toxic”. Besides, in data set [2] (setting [10]), the Toxicity is recorded as >500 µM.

For KFLHSAKK [PH(SCAP*)3], in data set [1], the MIC is listed as >300 µM. Further, in data set [2] (setting [9]), the “toxicity on HFF cells (in words)” value is reported as “not toxic”. In addition, in data set [2] (setting [10]), the Toxicity is given as >500 µM.

In the case of “KFLNRF [fIP1, the six residues at the N-terminus of IP1, control peptide]”, the “antifungal (killing) activity” value in data set [7] is “did not exhibit any activity”. For the same compound, in data set [8], the mitochondrial swelling activity result was “did not exhibit any activity”.

For the compound KWKLFKKI [PH(SCAP*)1], the “toxicity on HFF cells (in words)” value in data set [2] (setting [9]) was “not toxic”. In addition, in data set [2] (setting [10]), the Toxicity is listed as >460 µM.

Consider “KWKLFKKIEKVGQNIRDGIIKAGPAVAVVGQATQIAK (Cecropin-A; UniProt P01507 27-63, looked up) [Cecropin A]”, for which the MIC in data set [5] is 0.1 µM. In data set [6], the Toxicity is >50 µM.

For LKKLKLLLKLL [PH(CeMa)1], in data set [2], the Toxicity was >90 µM and the “toxicity on HFF cells (in words)” value is “none of the peptides induced cell death”.

Consider LKKLLKLLL [PH(Magainin)1], for which, in data set [2], the Toxicity was >120 µM and the “toxicity on HFF cells (in words)” value was “none of the peptides induced cell death”.

As to RRLKDFWHWLQLKPGQPMY [IP2], in data set [1], the MIC is 20 µM and the “antibacterial activity (in words)” value is given as “presented anti-bacterial activity”. Also, in data set [2], the Toxicity is listed as >36 µM and the “toxicity on HFF cells (in words)” value was “no toxicity”.

Values taken from publication PMC3396687, “Moonlighting Peptides with Emerging Function” (PLoS ONE, 2012).
